In the CheMixHub viscosity set:
“And” between values parts separate entries of the source, which are not always exact repeats. Equal values may be shown once.

Experiment: xn = mol fraction of the nth substance listed

CC(N)CN (configuration not stated) + O
viscosity [mPa·s], 101 kPa
Conditions | 298.15 K | 303.15 K | 308.15 K | 313.15 K | 318.15 K | 323.15 K
x1 = 0.0997 | 6.527 | 5.479 | 4.625 | 3.878 | 3.237 | –
x1 = 0.0998 | – | 3.004 | 2.529 | 2.154 | 1.855 | 1.625
x1 = 0.1997 | – | 6.596 | 5.258 | 4.287 | 3.559 | 2.977
x1 = 0.2002 | 9.458 | 7.901 | 6.605 | 5.522 | 4.611 | –
x1 = 0.2522 | – | 7.702 | 6.095 | 4.913 | 4.041 | 3.365
x1 = 0.2992 | – | 8.043 | 6.383 | 5.139 | 4.211 | 3.495
x1 = 0.2998 | 10.24 | 8.542 | 7.121 | 5.956 | 4.993 | –
x1 = 0.3412 | – | 7.793 | 6.196 | 5.033 | 4.11 | 3.452
x1 = 0.3995 | 9.546 | 7.939 | 6.633 | 5.555 | 4.676 | –
x1 = 0.4012 | – | 7.095 | 5.678 | 4.69 | 3.823 | 3.204
x1 = 0.4957 | 8.037 | 6.649 | 5.591 | 4.69 | 3.961 | –
x1 = 0.5022 | – | 5.538 | 4.504 | 3.734 | 3.14 | 2.671
x1 = 0.6011 | – | 3.921 | 3.288 | 2.792 | 2.395 | 2.08
x1 = 0.6024 | 6.005 | 4.915 | 4.178 | 3.516 | 2.983 | –
x1 = 0.6913 | – | 2.844 | 2.443 | 2.113 | 1.85 | 1.632
x1 = 0.694 | 4.35 | 3.566 | 3.067 | 2.603 | 2.23 | –
x1 = 0.7912 | – | 2.119 | 1.854 | 1.634 | 1.45 | 1.302
x1 = 0.7949 | 2.882 | 2.425 | 2.098 | 1.814 | 1.585 | –
x1 = 0.8901 | 1.975 | 1.752 | 1.508 | 1.337 | 1.199 | –
x1 = 0.8998 | – | 1.689 | 1.501 | 1.312 | 1.216 | 1.101

Cc1cccc(C)n1 + O
Conditions | viscosity
293.18 K, 101 kPa, x1 = 0.06338 | 2.838 mPa·s
295.15 K, 101 kPa, x1 = 0.0183 | 1.357 mPa·s
295.15 K, 101 kPa, x1 = 0.0403 | 1.932 mPa·s
295.15 K, 101 kPa, x1 = 0.0675 | 2.915 mPa·s
295.15 K, 101 kPa, x1 = 0.0833 | 3.276 mPa·s
295.15 K, 101 kPa, x1 = 0.144 | 4.298 mPa·s
295.15 K, 101 kPa, x1 = 0.282 | 5.153 mPa·s
295.15 K, 101 kPa, x1 = 0.402 | 4.278 mPa·s
295.15 K, 101 kPa, x1 = 0.602 | 2.687 mPa·s
296.18 K, 101 kPa, x1 = 0.06338 | 2.578 mPa·s
298.12 K, 101 kPa, x1 = 0.3006 | 4.353 mPa·s
298.15 K, 101 kPa, x1 = 0.02034 | 1.346 mPa·s
298.15 K, 101 kPa, x1 = 0.0297 | 1.553 mPa·s
298.15 K, 101 kPa, x1 = 0.05039 | 2.066 mPa·s
298.15 K, 101 kPa, x1 = 0.07682 | 2.713 mPa·s
298.15 K, 101 kPa, x1 = 0.1166 | 3.638 mPa·s
298.15 K, 101 kPa, x1 = 0.1208 | 3.916 mPa·s
298.16 K, 101 kPa, x1 = 0.5008 | 2.844 mPa·s
298.17 K, 101 kPa, x1 = 0.3981 | 3.708 mPa·s
298.18 K, 101 kPa, x1 = 0.06338 | 2.428 mPa·s
298.19 K, 101 kPa, x1 = 0.0602 | 2.361 mPa·s
298.19 K, 101 kPa, x1 = 0.7887 | 1.038 mPa·s
298.2 K, 101 kPa, x1 = 0.1001 | 3.14 mPa·s
298.2 K, 101 kPa, x1 = 0.651 | 1.812 mPa·s
298.21 K, 101 kPa, x1 = 0.0501 | 2.095 mPa·s
298.23 K, 101 kPa, x1 = 0.2004 | 4.298 mPa·s
299.18 K, 101 kPa, x1 = 0.06338 | 2.36 mPa·s
300.12 K, 101.33 kPa, x1 = 0.0182 | 1.217 mPa·s
300.18 K, 101 kPa, x1 = 0.06338 | 2.291 mPa·s
301.18 K, 101 kPa, x1 = 0.06338 | 2.243 mPa·s
302.02 K, 101 kPa, x1 = 0.0297 | 1.415 mPa·s
302.18 K, 101 kPa, x1 = 0.06338 | 2.182 mPa·s
303.02 K, 101 kPa, x1 = 0.2004 | 3.54 mPa·s
303.05 K, 101 kPa, x1 = 0.0602 | 2.172 mPa·s
303.08 K, 101 kPa, x1 = 0.1001 | 2.712 mPa·s
303.12 K, 101.33 kPa, x1 = 0.0182 | 1.132 mPa·s
303.17 K, 101 kPa, x1 = 0.0501 | 1.932 mPa·s
303.17 K, 101 kPa, x1 = 0.3006 | 3.538 mPa·s
303.18 K, 101 kPa, x1 = 0.06338 | 2.136 mPa·s
303.19 K, 101 kPa, x1 = 0.3981 | 3.072 mPa·s
303.19 K, 101 kPa, x1 = 0.5008 | 2.464 mPa·s
303.23 K, 101 kPa, x1 = 0.7887 | 0.955 mPa·s
303.26 K, 101 kPa, x1 = 0.651 | 1.593 mPa·s
304.18 K, 101 kPa, x1 = 0.06338 | 2.093 mPa·s
304.48 K, 101 kPa, x1 = 0.06338 | 2.084 mPa·s
304.78 K, 101 kPa, x1 = 0.06338 | 2.076 mPa·s
304.98 K, 101 kPa, x1 = 0.06338 | 2.071 mPa·s
305.18 K, 101 kPa, x1 = 0.06338 | 2.066 mPa·s
305.38 K, 101 kPa, x1 = 0.06338 | 2.063 mPa·s
305.58 K, 101 kPa, x1 = 0.06338 | 2.064 mPa·s
305.78 K, 101 kPa, x1 = 0.06338 | 2.065 mPa·s
305.98 K, 101 kPa, x1 = 0.06338 | 2.065 mPa·s
306.18 K, 101 kPa, x1 = 0.06338 | 2.058 mPa·s
306.28 K, 101 kPa, x1 = 0.06338 | 2.074 mPa·s
306.38 K, 101 kPa, x1 = 0.06338 | 2.083 mPa·s
306.48 K, 101 kPa, x1 = 0.06338 | 2.088 mPa·s
306.58 K, 101 kPa, x1 = 0.06338 | 2.101 mPa·s
306.68 K, 101 kPa, x1 = 0.06338 | 2.124 mPa·s
306.78 K, 101 kPa, x1 = 0.06338 | 2.141 mPa·s
306.83 K, 101 kPa, x1 = 0.06338 | 2.151 mPa·s
306.88 K, 101 kPa, x1 = 0.06338 | 2.183 mPa·s
306.9 K, 101 kPa, x1 = 0.06338 | 2.198 mPa·s
306.93 K, 101 kPa, x1 = 0.06338 | 2.22 mPa·s
306.95 K, 101 kPa, x1 = 0.06338 | 2.242 mPa·s
306.97 K, 101 kPa, x1 = 0.06338 | 2.27 mPa·s
306.98 K, 101 kPa, x1 = 0.06338 | 2.291 mPa·s
306.99 K, 101 kPa, x1 = 0.06338 | 2.316 mPa·s
307 K, 101 kPa, x1 = 0.06338 | 2.344 mPa·s and 2.36 mPa·s
307.01 K, 101 kPa, x1 = 0.06338 | 2.384 mPa·s and 2.396 mPa·s and 2.405 mPa·s
307.35 K, 101 kPa, x1 = 0.043 | 1.5 mPa·s
307.35 K, 101 kPa, x1 = 0.0974 | 1.8 mPa·s
307.65 K, 101 kPa, x1 = 0.0403 | 1.35 mPa·s
307.65 K, 101 kPa, x1 = 0.105 | 1.95 mPa·s
308.15 K, 101 kPa, x1 = 0.0349 | 1.2 mPa·s
308.15 K, 101 kPa, x1 = 0.116 | 2.2 mPa·s
308.18 K, 101 kPa, x1 = 0.5008 | 2.071 mPa·s
308.21 K, 101 kPa, x1 = 0.3981 | 2.587 mPa·s
308.23 K, 101 kPa, x1 = 0.7887 | 0.881 mPa·s
308.26 K, 101 kPa, x1 = 0.651 | 1.413 mPa·s
309.15 K, 101 kPa, x1 = 0.0288 | 1.1 mPa·s
309.15 K, 101 kPa, x1 = 0.131 | 2.57 mPa·s
311.15 K, 101 kPa, x1 = 0.0204 | 0.96 mPa·s
311.15 K, 101 kPa, x1 = 0.155 | 2.47 mPa·s
313.15 K, 101 kPa, x1 = 0.0185 | 0.88 mPa·s
313.15 K, 101 kPa, x1 = 0.172 | 2.38 mPa·s
313.25 K, 101 kPa, x1 = 0.5008 | 1.794 mPa·s
313.31 K, 101 kPa, x1 = 0.3981 | 2.196 mPa·s
313.32 K, 101 kPa, x1 = 0.651 | 1.262 mPa·s
313.34 K, 101 kPa, x1 = 0.7887 | 0.815 mPa·s
318.3 K, 101 kPa, x1 = 0.5008 | 1.571 mPa·s
318.34 K, 101 kPa, x1 = 0.3981 | 1.902 mPa·s
318.36 K, 101 kPa, x1 = 0.7887 | 0.758 mPa·s
318.37 K, 101 kPa, x1 = 0.651 | 1.134 mPa·s
319.15 K, 101 kPa, x1 = 0.017 | 0.73 mPa·s
319.15 K, 101 kPa, x1 = 0.218 | 1.81 mPa·s
323.15 K, 101 kPa, x1 = 0.013 | 0.63 mPa·s
323.15 K, 101 kPa, x1 = 0.236 | 1.7 mPa·s
